Test [1] relates to hESC. Description: hESC culture on dishes pre-coated with different matrices; FACS marker expression. The format is cell-based, human. As to the method: Human embryonic fibroblasts derived from umbilical cord as described herein or foreskin fibroblasts were used as feeders. The feeders were plated in tissue culture dishes precoated with 1 μg/cm^2 human Fibronectin (BD Biosciences, Bedford, Mass.) or 100 μg/ml recombinant Gelatin (FibroGen, SF). Mitotic inactivation was carried out by incubating the feeders 2.5 hours with Mitomycin-C (Kyowa, Tokyo). KO DMEM (Gibco), X-Vivo 10 (Biowhittaker, Maryland), or Cellgro Stem Cell Growth Medium (CellGenix Freiburg, Germany) were used as the basic media. They were supplemented with TCH (1-2%; Protide Pharmaceuticals, St. Paul, Minn.) or Nutridoma-CS (2%; Roche, Germany) as serum substitutes. The media were supplemented with 2 mM glutamine (Hyclone, Utah) and non-essential amino acids (NEAA, 1%; Hyclone Utah). HESC were split weekly with Ca/Mg^++-free PBS supplemented with 0.05% EDTA.
FACS analysis of marker expression was performed on hESC after disaggregation using Ca/Mg^++-free PBS supplemented with 0.05% EDTA. The cells were then washed with FACS media consisting of PBS supplemented with 1% BSA and 0.05% sodium azide. The single cell suspension was stained with anti-SSEA4 (1:100, mouse monoclonal IgG3, Developmental Studies Hybridoma Bank (DHSB), Iowa City, Iowa), and anti-Tra-1-60 (1:20, monoclonal mouse IgM, gift from Prof. P. Andrews), anti-Tra-1-81 (1:100, monoclonal mouse IgM, Chemicon International), anti-human Oct 4 (mouse monoclonal IgG2b, 1:50, Santa Cruz), and anti-SSEA1 (1:100, Chemicon). Control hESC were stained with the respective isotype control antibodies. Primary antibodies were detected with a FITC-labeled goat anti-mouse Ig (1:100, Dako).

For test [2], the system named is hESC. Description: Suspension culture of hESC in NBN2 medium. Type of test: cell-based, human. The settings on record: NBN2, in the presence of FGF2, 3 weeks. As to the method: In the course of the routine passaging procedure, HESC colonies were dissociated with 0.05% of EDTA for 7-10 min at 37°, or mechanically with the aid of collagenase IV (1 mg/ml, 120 min at 37°). Cell dissociation was promoted by gentle blowing of the medium with a 1 ml pipette tip towards the hESC colonies. The cells/cell-clusters were re-suspended in NBN2 medium (Neurobasal, N2 supplement 1:100, glutamine 2 mM, 50 units/ml penicillin, 50 μg/ml streptomycin) supplemented with bFGF 20 ng/ml, noggin 250 ng/ml, activin 25-50 ng/ml, fibronectin and laminin 5 ng/ml each, gelatin 0.001%. The suspension may be strained though 30-50 micron mesh to remove big clumps and transferred into tissue culture dishes (Costar®, Corning Inc., Corning, N.Y., USA) at a density of ˜0.7-1.2×10^6 cells/ml. Dead cells and their fragments were gradually removed during media refreshment and small transparent cell aggregates emerged from the 3rd-5th days of suspension culture. The cells proliferated as free-floating tiny clusters of 20-50 cells. Aggregation and overgrowth of clusters was prevented by their daily trituration with a 1000 μl pipettor tip. Alternatively, every 7 days clusters were dissociated with Ca/Mg-free PBS supplemented with 3 mM EDTA and 0.06% trypsin and the single cells were resuspended in fresh medium. […]

Setting [3] is: Cellgro medium with 2% TCH, matrix coating.

Consider gelatin, for which, in the test with hESC [1] (setting [3]), the “percentage of SSEA-4+ cells” value came out at 97% and the “percentage of Tra-1-60+ cells” value is listed as 92%. Besides, the “percentage of SSEA-4+ hESC” value in the test on hESC [1] (foreskin feeder layer, KO DMEM+KO SR, plates precoated with the matrix) is given as 91%.

B1: activin A: TGFβ superfamily factor, 25-50 ng/ml (protein, UniProt P08476 311-426, looked up)
Inhibin beta A chain: GLECDGKVNICCKKQFFVSFKDIGWNDWIIAPSGYHANYCEGECPSHIAGTSGSSLSFHSTVINHYRMRGHSPFANLKSCCVPTKLRPMSMLYYDDGQNIIKKDIQNMIVEECGCS
modifications: Inhibin beta A chain
notes: TGFβ superfamily factor, 25-50 ng/ml
Turning to B1, the “effect on differentiation of hESC in suspension” value in the test on hESC [2] (FIG. 23A) is “prevented differentiation”.

B2: noggin: BMPs antagonist, 250 ng/ml (protein, UniProt Q13253 28-232, looked up)
Noggin: QHYLHIRPAPSDNLPLVDLIEHPDPIFDPKEKDLNETLLRSLLGGHYDPGFMATSPPEDRPGGGGGAAGGAEDLAELDQLLRQRPSGAMPSEIKGLEFSEGLAQGKKQRLSKKLRRKLQMWLWSQTFCPVLYAWNDLGSRFWPRYVKVGSCFSKRSCSVPEGMVCKPSKSVHLTVLRWRCQRRGGQRCGWIPIQYPIISECKCSC
As for B2, in the test with hESC [2] (FIG. 23B), the “effect on survival/proliferation of hESC in suspension” value is reported as “could promote survival/proliferation”.
